Data taken from patent US20240398818A1, “Cardiosafe Antidiabetic Therapy” (priority 2018, published 2024).

Tested on: adult patients with early type 2 diabetes mellitus and increased CV risk or established complications
Assay: Cardiovascular Safety Trial (linagliptin versus glimepiride)
Type: in vivo
Experimental: The effect of linagliptin on cardiovascular risk in adult patients with early type 2 diabetes mellitus and increased CV risk or established complications was evaluated in this Cardiovascular Safety Trial, a multi-center, multi-national, randomized, double-blind parallel group trial. The trial compared the risk of experiencing a major adverse cardiovascular event (MACE) between linagliptin and glimepiride when these were added to standard of care (including background therapy with metformin) based on regional standards for HbA1c and CV risk factors. The trial was event driven and patients were followed until at least 631 primary outcome events accrued.
A total of 6033 patients were treated (linagliptin 5 mg=3023; glimepiride 1 mg to 4 mg=3010) and followed for a median of 6.25 years (median time on treatment 5.9 years). Approximately 73% of the study population was Caucasian, 18% was Asian, and 5% was Black. The mean age was 64 years and 60% were male.
At baseline, disease characteristics were balanced. […] The trial population included 2030 (34%) patients ≥70 years of age, 2089 (35%) patients with cardiovascular disease, and 1130 (19%) patients with renal impairment with an eGFR <60 mL/min/1.73 m2 at baseline. Overall, the previous use of diabetes medications was balanced across treatment groups (metformin 83% continued as background therapy, sulfonylurea 28% discontinued prior to randomization), patients on insulin were excluded. The use of medications to reduce cardiovascular risk was also balanced (aspirin 47%, statins 65%, ACE inhibitors or ARBs 74%, beta blockers 39%, and calcium channel blockers 30%).
The primary endpoint in this Cardiovascular Safety Trial was the time to first occurrence of three point (3P) MACE. A major adverse cardiac event was defined as a cardiovascular death or a nonfatal myocardial infarction (MI) or a nonfatal stroke. The statistical analysis plan tested for non-inferiority for the occurrence of 3P MACE. The key secondary endpoint evaluated the composite of treatment sustainability defined as the proportion of patients on study treatment, that maintain glycemic control (HbA1c≤7.0%) without need for additional antidiabetic drug therapy (rescue medication), without any moderate (symptomatic with glucose value <70 mg/dL) or severe (requiring assistance) hypoglycemic episodes, and without >2% weight gain from baseline.
Cardiovascular Outcome Trial of Linagliptin Versus Glimepriride in Type 2 Diabetes—assessing long-term cardiovascular impact of linagliptin versus the sulphonylurea glimepiride in subjects with early type 2 diabetes and increased cardiovascular risk or established complications. […]
Type 2 diabetes patient with insufficient glycemic control (naïve or currently treated (mono or dual therapy) with e.g. metformin and/or an alpha-glucosidase inhibitor (e.g. having HbA1c 6.5-8.5%), or currently treated (mono or dual therapy) with e.g. a sulphonylurea or glinide, with or without metformin or an alpha-glucosidase inhibitor (e.g. having HbA1c 6.5-7.5%)) and increased or high risk of cardiovascular events, e.g. defined as one or more of risk factors A), B), C) and D) indicated below, are randomized* and treated over a lengthy period (e.g. up to 432 weeks) with linagliptin (5 mg, q.d., optionally in combination with one or more other active substances, e.g. such as added to existing antidiabetic background) and compared with patients treated with the sulphonylurea glimepiride (1-4 mg once daily). * Upon randomization, if a patient is on a SU or glinide, this secretagogue therapy is discontinued and replaced with study medication. For patients not on a secretagogue, study medication is added to the existing regimen.
Time to first occurrence of any of the following adjudicated components of the primary composite endpoint: […]

[1] = baseline to Final Visit, observed cases including values after rescue medication
[2] = both, human, in vivo, 5.9 years
[3] = both, human, in vivo, 6.25 years
[4] = component of secondary composite
[5] = from end of titration (16 weeks) to final visit
[6] = median follow-up 6.25 years, listed as linagliptin

CC#CCn1c(N2CCC[C@@H](N)C2)nc2c1c(=O)n(Cc1nc(C)c3ccccc3n1)c(=O)n2C [Linagliptin, 1-[(4-methyl-quinazolin-2-yl)methyl]-3-methyl-7-(2-butyn-1-yl)-8-(3-(R)-amino-piperidin-1-yl)-xanthine]
patients with macroalbuminuria (>300 mg/g) (at Final Visit): 1.4% | patients with microalbuminuria (≥30 to ≤300 mg/g) (at Final Visit): 14.1% | patients with normal UACR (<30 mg/g) (at baseline and at Final Visit): 58.4% | HBA1c, Change from baseline, adjusted mean (baseline to Final Visit, all observed cases): 0.06% | Creatinine, Change from baseline, adjusted mean [1]: 0.08 mg/dL | HDL, Change from baseline, adjusted mean [1]: 0.7 mg/dL | LDL, Change from baseline, adjusted mean [1]: -6.1 mg/dL | Total cholesterol, Change from baseline, adjusted mean [1]: -5.4 mg/dL | Triglyceride, Change from baseline, adjusted mean [1]: 1.7 mg/dL | Urinary albumin, Change from baseline, adjusted mean [1]: 43.4 mg/dL | third key secondary endpoint of treatment sustainability (on medication, HbA1c≤7.0%, no rescue, no >2% weight gain), responders (between Visit 6 and Final Visit): 17.4% | Hospitalization for heart failure (HHF), Incidence Rate per 1000 PY (both, human, in vivo): 6.4 per 1000 PY | Hospitalization for heart failure (HHF), Number of Subjects (both, human, in vivo): 112 | Moderate/severe hypoglycaemic episodes, odds ratio (both, human, in vivo): 0.16 | Patients with any moderate/severe hypoglycemic episodes, Number of Subjects (both, human, in vivo): 163 | Patients with any moderate/severe hypoglycemic episodes, Subjects (%) (both, human, in vivo): 5.6% | Secondary CV composite (4P-MACE), Incidence Rate per 1000 PY (both, human, in vivo): 23.4 per 1000 PY | rate of moderate or severe hypoglycemia [2]: 6.5% | severe hypoglycemia (requiring assistance) [2]: 0.3% | Premature discontinuation from trial medication due to adverse events [3]: 15.1% | Primary CV composite (3P-MACE), Hazard Ratio [3]: 0.98 | Primary CV composite (3P-MACE), Incidence Rate per 1000 PY [3]: 20.7 per 1000 PY | Secondary CV composite (4P-MACE), Hazard Ratio [3]: 0.99 | all-cause mortality, incidence rate per 1000 years at risk [3]: 16.8 per 1000 years at risk | any adjudicated event (secondary CV endpoint), % of patients [3]: 17.1% | any adjudicated event, HR [3]: 0.96 | hospitalisation for heart failure combined with CV death, incidence rate per 1000 years at risk [3]: 13.4 per 1000 years at risk | hospitalisation for heart failure, incidence rate per 1000 years at risk [3]: 6.4 per 1000 years at risk | investigator-reported heart failure AEs, % of patients [3]: 5.5% | investigator-reported heart failure AEs, HR [3]: 1.06 | investigator-reported heart failure AEs, incidence rate per 1000 years at risk [3]: 9.5 per 1000 years at risk | non-CV death, % of patients [3]: 4.6% | non-CV death, incidence rate per 1000 years at risk [3]: 7.6 per 1000 years at risk | proportion of patients with CV death contributing to the 3P-MACE [3]: 4.3% | proportion of patients with CV death contributing to the 4P-MACE [3]: 4.1% | proportion of patients with hospitalisation for unstable angina pectoris contributing to the 4P-MACE [3]: 1.9% | proportion of patients with non-fatal MI contributing to the 3P-MACE [3]: 4.7% | proportion of patients with non-fatal MI contributing to the 4P-MACE [3]: 4.4% | proportion of patients with non-fatal stroke contributing to the 3P-MACE [3]: 2.8% | proportion of patients with non-fatal stroke contributing to the 4P-MACE [3]: 2.8% | Creatinine, Comparison vs. glimepiride, Adjusted mean (change baseline to Final Visit): -0.01 mg/dL | FPG, Comparison vs. glimepiride, Adjusted mean (change baseline to Final Visit): -7.3 mg/dL | HBA1c, Comparison vs. glimepiride, Adjusted mean (change baseline to Final Visit): −0.09% | HDL, Comparison vs. glimepiride, Adjusted mean (change baseline to Final Visit): 0.5 mg/dL | LDL, Comparison vs. glimepiride, Adjusted mean (change baseline to Final Visit): 0.4 mg/dL | Total cholesterol, Comparison vs. glimepiride, Adjusted mean (change baseline to Final Visit): -0.4 mg/dL | Triglyceride, Comparison vs. glimepiride, Adjusted mean (change baseline to Final Visit): -3.5 mg/dL | Urinary albumin, Comparison vs. glimepiride, Adjusted mean (change baseline to Final Visit): -1.9 mg/dL | Patients with maintained glycemic control (HbA1c ≤7.0%), Number of Subjects [4]: 648 | Patients with maintained glycemic control (HbA1c ≤7.0%), Subjects (%) [4]: 21.5% | Patients with ≤2% weight gain, Number of Subjects [4]: 775 | Patients with ≤2% weight gain, Subjects (%) [4]: 25.7% | Secondary composite of treatment sustainability (on treatment, HbA1c ≤7.0%, no rescue, no moderate/severe hypoglycemic episodes, no >2% weight gain), Number of Subjects [5]: 481 | Secondary composite of treatment sustainability (second key secondary endpoint), Subjects (%) [5]: 16.0% | first intake of rescue medication, incidence rate per 1000 years at risk (in vivo): 128.6 per 1000 years at risk | rate of patients who used rescue medication (in vivo): 49.3% | safety profile in this trial population (in words) (in vivo): no new safety signal | time to 3P-MACE, non-inferiority test (in words) (in vivo): non-inferior | weight, adjusted mean difference (linagliptin compared with glimepiride over time): -1.61 kg | All-cause mortality, Hazard Ratio (linagliptin vs glimepiride): 0.91 | HHF or CV death, Hazard Ratio (linagliptin vs glimepiride): 1.00 | non-CV death, hazard ratio (linagliptin vs glimepiride): 0.82 | third key secondary endpoint of treatment sustainability, OR (linagliptin vs glimepiride): 1.29 | HHF or CV death, Hazard Ratio (linagliptin vs glimepiride, listed as linagliptin): 1.00 | Secondary composite of treatment sustainability (second key secondary endpoint), Odds Ratio (linagliptin vs glimepiride, logistic regression): 1.68 | All-cause mortality, Incidence Rate per 1000 PY (median follow-up 6.25 years): 16.8 per 1000 PY | All-cause mortality, Number of Subjects (median follow-up 6.25 years): 308 | All-cause mortality, Subjects (%) (median follow-up 6.25 years): (10.2) % | HHF or CV death, Incidence Rate per 1000 PY (median follow-up 6.25 years): 13.4 per 1000 PY | HHF or CV death, Number of Subjects (median follow-up 6.25 years): 236 | HHF or CV death, Subjects (%) (median follow-up 6.25 years): (7.8) % | Secondary CV composite (cardiovascular death, non-fatal MI, non-fatal stroke and hospitalization for unstable angina; 4P-MACE), Number of Subjects (median follow-up 6.25 years): 398 | Primary CV composite (cardiovascular death, non-fatal MI, non-fatal stroke; 3P-MACE), Number of Subjects (median follow-up 6.25 years, added to standard of care): 356 | All-cause mortality, Subjects (%) [6]: 10.2% | HHF or CV death, Subjects (%) [6]: 7.8% | weight change (in words) (over time): modest decrease in weight
